Test results from patent US9303009B2, “Migrastatins and uses thereof” (Sloan-Kettering Institute for Cancer Research, priority 2011, dated 2016).

Assays:
[1] = system: H1975; experiment: transwell migration (modified Boyden chamber, serum gradient); assay type: cell-based; settings: Homo sapiens, NCI-H1975, 12 hour migration, mean +/- SEM of three experiments, read-out: IC50, inhibition of transwell migration
Procedure: Migration assay: Cancer cell chemotaxis was performed towards a serum gradient in a modified Boyden chamber consisting of a cell culture insert (6.4 mm diameter, 8-μm pore polyethylene tetraphtalate membrane, [Becton Dickenson]) seated in each well of a 24-well companion plate (Becton Dickinson). Briefly, cancer cells were grown as subconfluent monolayer cultures then starved for 36 hours in serum-free M5 medium. After detachment and dissociation with 5 mM EDTA, single-cell suspensions were prepared by filtration through a 35 μm mesh cell strainer (Becton Dickinson). Cells were counted and a total of 10^5 cells suspended in serum-free medium were seeded into the upper chamber of an insert, then positioned in a 24-well plate, containing medium with or without 10% serum. […] For quantification, three randomly selected fields on the lower side of the insert were photographed at 4× and 20× magnification using computer-assisted microscopy, and analyzed with CellProfiler2.0 cell image analysis software). The migration in response to the test condition was calculated relative to the DMSO vehicle control. […]
Lung Cancer cell lines chemotaxis was performed in cell culture inserts after serum starvation and an overnight preincubation with an incremental logarithmic scale of drug concentration (ME and CME from 10^−3 to 10^−10M). […] Data are expressed as the mean+/−SEM of three independent experiments. […]

[2] = system: AC3-TGL cells; experiment: human SCLC xenograft model, Example 17; assay type: in vivo; settings: for tumor growth kinetics at the primary site of injection: all doses
Procedure: Evaluation of the anti-metastatic activity of ME (19) and CME (25) in a human SCLC xenograft model. These cells, in primary and subsequent in vivo passages in NOD/SCID mice, tend to form liver metastases. The tumor cells were stably transduced with a triple-fusion protein reporter construct (AC3-TGL), and then transplanted by subcutaneous injection with matrigel into NOD/SCID IL2R gamma null (NSG) mice.
Starting 1 day prior to the inoculation of tumor cells, groups of mice were treated with ME at doses of 10 mg/kg, 40 mg/kg, or 200 mg/kg, or with CME at 12 mg/kg or 49 mg/kg (note: dosage levels were adjusted to account for differences in molecular weight: 1 mg ME=1.2 mg CME). Control mice were treated with DMSO vehicle. The compounds were administered by i.p. injection every three days, from Day −1 to Day 55 following cell injection (n≧5 mice per group). During this time, tumor burden and metastatic spread were monitored by serial non-invasive bioluminescent imaging (BLI) at Days 14, 23, 30, 40, and 50. At Day 55, the mice were sacrificed and the metastatic spread of tumor cells to the lungs, liver, heart, kidneys, and spleen was assessed by ex-vivo BLI on the removed organs.
For the results depicted in FIGS. 7a-b: AC3-TGL cells were transplanted by subcutaneous ventral injection into NSG mice. Xenografted mice were treated with indicated dosages of CME or ME every 3 days starting 1 day prior to the inoculation of tumor cells: ME 10 mg/kg (ME10, n=5), 40 mg/kg (ME40, n=5), 200 mg/kg (ME200, n=5), CME 12 mg/kg (CME12, n=5), 49 mg/kg (CME49, n=5) and DMSO vehicle (control, n=6). At day 55, the mice were sacrificed. Three mice in the ME200 group died before the end of treatment. Tumor metastasis at endpoint: At day 55, mice were analyzed for metastasis by ex vivo BLI quantifying luciferase activity in the excised lungs, (Lu), liver (Li), heard (H), kidneys (K), and the spleen (S). Measurements for each mouse are presented in FIG. 7a (circles), with the average per group (short line) and expressed as photon flux (flux in photon/sec) in log scale. P-values were obtained using two-tailed Mann-Whitney U-test. Each picture is presented with the same settings (4 min exposure, photon signal, color scale from 3.10^4 (min) to 5.10^6 (max)).
Xenograft Model for Example 17: A human primary SCLC xenograft model was developed in 10-14 weeks old male NSG mice. Primary tumor samples were obtained after patient informed consent under an MSKCC IRB approved protocol. AC3-TGL tumor cells growing as clumps were dissociated into a single-cell suspension by Trypsin/Collagenase IV (Invitrogen) sequential treatment. Xenografts were performed by subcutaneous ventral injection of 500 AC3-TGL cells in serum-free medium mixed with Matrigel (Becton Dickinson).
One day prior to the tumor cell injection, mice were pretreated with either: (1) Migrastatin Ether (ME) at a dose of 10 mg/kg, 40 mg/kg or 200 mg/kg per mouse; (2) Carboxymethyl-ME (CME) at a dose of 12 mg/kg or 49 mg/kg; or (3) DMSO vehicle control (n≧5 mice per group). Drug treatment was delivered by intraperitoneal injection every 3 days starting from day −1 after cell injection to day 55. During this time, the tumor burden and metastatic spread were monitored by bioluminescence imaging (BLI) at day 14, 23, 30, 40, and 50. At day 55 (endpoint), the mice were killed and the metastatic spread of tumor cells to the lungs, liver, heart, kidneys, and spleen was assessed by ex-vivo BLI on the surgically resected organs.

Row | SMILES | IC50 [1] [nM] | deaths prior to the study endpoint ([2]; 10 mg/kg group) [mice] | Inhibition factor (IF) of overall metastasis ([2]; 10 mg/kg i.p. every 3 days, day 55) [%] | deaths prior to the study endpoint ([2]; 40 mg/kg group) [mice] | Inhibition factor (IF) of overall metastasis ([2]; 40 mg/kg i.p. every 3 days, day 55) [%] | deaths prior to the study endpoint ([2]; 200 mg/kg group) [mice] | Inhibition factor (IF) of overall metastasis ([2]; 200 mg/kg i.p. every 3 days, day 55, 2 surviving mice) [%] | tumor growth kinetics at the primary site of injection [2] | Inhibition factor (IF) of overall metastasis ([2]; 12 mg/kg i.p. every 3 days, day 55) [%] | toxicity ([2]; 12 mg/kg or 49 mg/kg cohorts) | Inhibition factor (IF) of overall metastasis ([2]; 49 mg/kg i.p. every 3 days, day 55) [%] | potency relative to ME in inhibiting in vivo metastasis ([2]; at the lowest dosage level)
1 | CO[C@H]1/C=C/CCCCCOC/C(C)=C\[C@@H](C)[C@@H]1O [ME, migrastatin ether] | 1510 ± 690 | 2 | 96.2 | 2 | 99.1 | 3 | 99.8 | did not significantly affect |  |  |  | 
2 | CO[C@H]1/C=C/CCCCCOC/C(C)=C\[C@@H](C)[C@@H]1OCC(=O)O [CME, Carboxymethyl migraether] | 510 ± 420 |  |  |  |  |  |  | did not significantly affect | 99.3 | no toxicity was observed | 99.8 | approximately 4 times
